# According to US7674902B2, “Luminescent metal complexes for monitoring renal function” (priority 2004, dated 2010):
# Assay: Biodistribution of radiolabelled DTPA complexes in normal rats, compared with 99mTc-DTPA positive control
# Format: in vivo
# Settings: normal Sprague-Dawley rats; 111In-labelled complex
# Description: Commercially available DTPA kit (Draximage Co., Ontario, Canada) was labeled with ^99mTc by the standard procedure described in the package insert that was supplied with the kit, and was administered to Sprague-Dawley rats (3 rats for each time point of 15 minutes, 60 minutes, 120 minutes, and 24 hours).
# A mixture of the stock solution of DTPA-mono(7-amino-4-methylcoumarin)amide ligand (1 mg/mL in 0.5M sodium acetate buffer, 100 μL), obtained from Gunma University, Japan (Ozaki, et. al. Reference 30), sodium acetate solution (0.5M, 100 μL), and commercially available ^111InCl3 solution (0.1M HCl, 100-200 μCi/100 μL) was adjusted to pH 4.5 and incubated at ambient temperature for 30 minutes. The resulting indium complex was purified by reverse phase HPLC and administered to Sprague-Dawley rats. The biodistribution was carried out in the same manner as that of ^99mTc-DTPA in Example 1 (FIG. 8).
row,Substance,hepatobiliary clearance (relative to reference complex)
1,^111In-HMDTPA-1-naphthylurethane complex [Example 5],much higher hepatobiliary clearance

# Same assay, conditions: normal Sprague-Dawley rats; time points 15 minutes, 60 minutes, 120 minutes, 24 hours; 111In-labelled complex
row,Substance,biodistribution of the complex (comparison with reference complex)
1,^111In-DTPA-bis(salicylamide) complex [Example 6],nearly identical to that of ^99mTc-DTPA
2,^111In-DTPA-mono(1-naphthylamide) complex [Example 4],nearly identical to that of ^99mTc-DTPA
3,^111In-DTPA-mono(pyrazinylamino)ethylamide complex [Example 7],nearly identical to that of ^99mTc-DTPA
4,^111In-DTPA-mono(quinoxanylamino)ethylamide complex [Example 8],nearly identical to that of the DTPA-coumarin derivative in Example 2
5,^111In-DTPA-mono(salicylamide) complex [Example 3],nearly identical to that of ^99mTc-DTPA
